Reference: the NIST ThermoML archive (doi:10.1016/j.jct.2017.03.006)
± gives the expanded uncertainty stated by the source.

Assay: xn = mol fraction of the nth substance listed
Conditions: 273.15 K, Liquid, Vibrating tube method

A mass density (100 kPa, x2 = 0) of 891.7 ± 0.7 kg/m3, a mass density (100 kPa, x2 = 0.1) of 885.9 ± 0.7 kg/m3 and a mass density (100 kPa, x2 = 0.1989) of 880.3 ± 0.7 kg/m3 were found for `Cc1ccc(C)c(C)c1` [1,2,4-trimethylbenzene] + CCC(C)O in this work. It also gave a mass density (100 kPa, x2 = 0.3011) of 874.4 ± 0.7 kg/m3, a mass density (100 kPa, x2 = 0.4002) of 868.5 ± 0.7 kg/m3 and a mass density (100 kPa, x2 = 0.5001) of 862.2 ± 0.7 kg/m3. The mass density (100 kPa, x2 = 0.5997) was 855.4 ± 0.7 kg/m3, the mass density (100 kPa, x2 = 0.6999) was 847.7 ± 0.7 kg/m3 and the mass density (100 kPa, x2 = 0.7999) was 840.4 ± 0.7 kg/m3. It also gave a mass density (100 kPa, x2 = 0.9) of 831.5 ± 0.7 kg/m3, a mass density (1000 kPa, x2 = 0) of 892.3 ± 0.7 kg/m3 and a mass density (1000 kPa, x2 = 0.1) of 886.3 ± 0.7 kg/m3. The mass density (1000 kPa, x2 = 0.1989) was 880.7 ± 0.7 kg/m3, the mass density (1000 kPa, x2 = 0.3011) was 874.7 ± 0.7 kg/m3 and the mass density (1000 kPa, x2 = 0.4002) was 868.8 ± 0.7 kg/m3. The mass density (1000 kPa, x2 = 0.5001) was 862.5 ± 0.7 kg/m3, the mass density (1000 kPa, x2 = 0.5997) was 855.9 ± 0.7 kg/m3 and the mass density (1000 kPa, x2 = 0.6999) was 848.6 ± 0.7 kg/m3. It also gave a mass density (1000 kPa, x2 = 0.7999) of 840.9 ± 0.7 kg/m3, a mass density (1000 kPa, x2 = 0.9) of 832.2 ± 0.7 kg/m3 and a mass density (2000 kPa, x2 = 0) of 892.9 ± 0.7 kg/m3. It also gave a mass density (2000 kPa, x2 = 0.1) of 886.9 ± 0.7 kg/m3, a mass density (2000 kPa, x2 = 0.1989) of 881.3 ± 0.7 kg/m3 and a mass density (2000 kPa, x2 = 0.3011) of 875.4 ± 0.7 kg/m3. For the same compound, the mass density (2000 kPa, x2 = 0.4002) was 869.5 ± 0.7 kg/m3, the mass density (2000 kPa, x2 = 0.5001) was 863.2 ± 0.7 kg/m3 and the mass density (2000 kPa, x2 = 0.5997) was 856.6 ± 0.7 kg/m3. It also gave a mass density (2000 kPa, x2 = 0.6999) of 849.3 ± 0.7 kg/m3, a mass density (2000 kPa, x2 = 0.7999) of 841.5 ± 0.7 kg/m3 and a mass density (2000 kPa, x2 = 0.9) of 832.9 ± 0.7 kg/m3. The mass density (5000 kPa, x2 = 0) was 894.6 ± 0.7 kg/m3, the mass density (5000 kPa, x2 = 0.1) was 888.8 ± 0.7 kg/m3 and the mass density (5000 kPa, x2 = 0.1989) was 883.2 ± 0.7 kg/m3. The mass density (5000 kPa, x2 = 0.3011) was 877.3 ± 0.7 kg/m3, the mass density (5000 kPa, x2 = 0.4002) was 871.4 ± 0.7 kg/m3 and the mass density (5000 kPa, x2 = 0.5001) was 865.2 ± 0.7 kg/m3. The mass density (5000 kPa, x2 = 0.5997) was 858.5 ± 0.7 kg/m3, the mass density (5000 kPa, x2 = 0.6999) was 851.3 ± 0.7 kg/m3 and the mass density (5000 kPa, x2 = 0.7999) was 843.5 ± 0.7 kg/m3. It also gave a mass density (5000 kPa, x2 = 0.9) of 835 ± 0.7 kg/m3, a mass density (10000 kPa, x2 = 0) of 897.4 ± 0.7 kg/m3 and a mass density (10000 kPa, x2 = 0.1) of 891.8 ± 0.7 kg/m3. For the same compound, the mass density (10000 kPa, x2 = 0.1989) was 886.2 ± 0.7 kg/m3, the mass density (10000 kPa, x2 = 0.3011) was 880.4 ± 0.7 kg/m3 and the mass density (10000 kPa, x2 = 0.4002) was 874.5 ± 0.7 kg/m3. The mass density (10000 kPa, x2 = 0.5001) was 868.3 ± 0.7 kg/m3, the mass density (10000 kPa, x2 = 0.5997) was 861.7 ± 0.7 kg/m3 and the mass density (10000 kPa, x2 = 0.6999) was 854.5 ± 0.7 kg/m3. For the same compound, the mass density (10000 kPa, x2 = 0.7999) was 846.8 ± 0.7 kg/m3, the mass density (10000 kPa, x2 = 0.9) was 838.2 ± 0.7 kg/m3 and the mass density (15000 kPa, x2 = 0) was 900.2 ± 0.7 kg/m3. For the same compound, the mass density (15000 kPa, x2 = 0.1) was 894.6 ± 0.7 kg/m3, the mass density (15000 kPa, x2 = 0.1989) was 889.1 ± 0.7 kg/m3 and the mass density (15000 kPa, x2 = 0.3011) was 883.3 ± 0.7 kg/m3. For the same compound, the mass density (15000 kPa, x2 = 0.4002) was 877.4 ± 0.7 kg/m3, the mass density (15000 kPa, x2 = 0.5001) was 871.3 ± 0.7 kg/m3 and the mass density (15000 kPa, x2 = 0.5997) was 864.7 ± 0.7 kg/m3. For the same compound, the mass density (15000 kPa, x2 = 0.6999) was 857.6 ± 0.7 kg/m3, the mass density (15000 kPa, x2 = 0.7999) was 849.9 ± 0.7 kg/m3 and the mass density (15000 kPa, x2 = 0.9) was 841.4 ± 0.7 kg/m3. It also gave a mass density (20000 kPa, x2 = 0) of 902.8 ± 0.7 kg/m3, a mass density (20000 kPa, x2 = 0.1) of 897.4 ± 0.7 kg/m3 and a mass density (20000 kPa, x2 = 0.1989) of 891.9 ± 0.7 kg/m3. It also gave a mass density (20000 kPa, x2 = 0.3011) of 886.1 ± 0.7 kg/m3, a mass density (20000 kPa, x2 = 0.4002) of 880.4 ± 0.7 kg/m3 and a mass density (20000 kPa, x2 = 0.5001) of 874.2 ± 0.7 kg/m3. It also gave a mass density (20000 kPa, x2 = 0.5997) of 867.6 ± 0.7 kg/m3, a mass density (20000 kPa, x2 = 0.6999) of 860.5 ± 0.7 kg/m3 and a mass density (20000 kPa, x2 = 0.7999) of 852.8 ± 0.7 kg/m3. It also gave a mass density (20000 kPa, x2 = 0.9) of 844.4 ± 0.7 kg/m3, a mass density (30000 kPa, x2 = 0) of 908 ± 0.7 kg/m3 and a mass density (30000 kPa, x2 = 0.1) of 902.7 ± 0.7 kg/m3. For the same compound, the mass density (30000 kPa, x2 = 0.1989) was 897.3 ± 0.7 kg/m3, the mass density (30000 kPa, x2 = 0.3011) was 891.6 ± 0.7 kg/m3 and the mass density (30000 kPa, x2 = 0.4002) was 885.8 ± 0.7 kg/m3. It also gave a mass density (30000 kPa, x2 = 0.5001) of 879.7 ± 0.7 kg/m3, a mass density (30000 kPa, x2 = 0.5997) of 873.3 ± 0.7 kg/m3 and a mass density (30000 kPa, x2 = 0.6999) of 866.2 ± 0.7 kg/m3. The mass density (30000 kPa, x2 = 0.7999) was 858.6 ± 0.7 kg/m3, the mass density (30000 kPa, x2 = 0.9) was 850.1 ± 0.7 kg/m3 and the mass density (40000 kPa, x2 = 0) was 912.9 ± 0.7 kg/m3. The mass density (40000 kPa, x2 = 0.1) was 907.8 ± 0.7 kg/m3, the mass density (40000 kPa, x2 = 0.1989) was 902.4 ± 0.7 kg/m3 and the mass density (40000 kPa, x2 = 0.3011) was 896.7 ± 0.7 kg/m3. The mass density (40000 kPa, x2 = 0.4002) was 891.1 ± 0.7 kg/m3, the mass density (40000 kPa, x2 = 0.5001) was 885 ± 0.7 kg/m3 and the mass density (40000 kPa, x2 = 0.5997) was 878.5 ± 0.7 kg/m3. It also gave a mass density (40000 kPa, x2 = 0.6999) of 871.5 ± 0.8 kg/m3, a mass density (40000 kPa, x2 = 0.7999) of 863.9 ± 0.8 kg/m3 and a mass density (40000 kPa, x2 = 0.9) of 855.6 ± 0.8 kg/m3. The mass density (50000 kPa, x2 = 0) was 917.5 ± 0.7 kg/m3, the mass density (50000 kPa, x2 = 0.1) was 912.6 ± 0.7 kg/m3 and the mass density (50000 kPa, x2 = 0.1989) was 907.2 ± 0.7 kg/m3. The mass density (50000 kPa, x2 = 0.3011) was 901.6 ± 0.7 kg/m3, the mass density (50000 kPa, x2 = 0.4002) was 896 ± 0.8 kg/m3 and the mass density (50000 kPa, x2 = 0.5001) was 890 ± 0.8 kg/m3. For the same compound, the mass density (50000 kPa, x2 = 0.5997) was 883.6 ± 0.8 kg/m3, the mass density (50000 kPa, x2 = 0.6999) was 876.6 ± 0.8 kg/m3 and the mass density (50000 kPa, x2 = 0.7999) was 869 ± 0.8 kg/m3. The mass density (50000 kPa, x2 = 0.9) was 860.7 ± 0.8 kg/m3 and the mass density (60000 kPa, x2 = 0) was 921.9 ± 0.7 kg/m3.
